# Measured values as given in publication PMC10873254, “Preclinical evaluation of new GRPR-antagonists with improved metabolic stability for radiotheranostic use in oncology” (EJNMMI Radiopharmacy and Chemistry, 2024).
# Where two headings read alike, the source gives them in different places. Marks after values point to notes of the source that are not given here.
# Assays:
# [1] = target: T1, GRPR (Homo sapiens, UniProt P30550); test: GRPR binding affinity and kinetics on PC-3 cells (LigandTracer); settings: 1-3 nM radioligand
# T1 construct: host or cells: PC-3 human prostate adenocarcinoma cells
# Description: For evaluation of the receptor affinity and binding kinetics, PC-3 cells were seeded in 100 mm Nunc™ Petri dishes (Thermo Fisher, Waltham, MA, USA). A LigandTracer Yellow device (Ridgeview Instruments AB, Uppsala, Sweden) was used to measure the radiation from the Petri dish. Background with RPMI-1640 medium was measured for 30 min, after which 1 nM of radioligand was added and measured for 2 h. An additional concentration (3 nM) was measured for another 2 h, thereafter the medium was aspirated, replaced with fresh medium, and left running overnight to measure the dissociation rate. Data was fitted with the TracerDrawer software (Ridgeview Instruments AB, Uppsala, Sweden).
# [2] = in vivo; parameters: species or system BALB/c nu/nu female mice; settings: female, BALB/c nu/nu, mouse, iv, total radioactivity
# Description: (§1) Animal experiments were planned and performed in accordance with national legislation on protection of laboratory animals, and protocols were approved by the Ethics Committee for Animal Research in Uppsala, Sweden (5.8.18–00473/2021). BALB/c nu/nu female mice were xenografted by subcutaneous injection of PC-3 cells on the hind leg (7 × 10^6 cells/mouse). At the date of the experiment, approximately 6 weeks after implantation, tumour sizes reached 0.11 ± 0.05 g. Groups of four mice were used for each time point. In the first group, mice were iv injected with test radiopeptide (30 kBq in 100 µL PBS supplemented with 1% bovine serum albumin (BSA), corresponding to 40 pmol) and euthanized at 4 h pi. Tumors and relevant organs were collected, weighted and sample radioactivity was measured using the gamma counter. In the case of [^111In]In-AU-SAR-M1 two additional mice groups underwent the same procedure but were euthanized either at 24 h pi, or at 4 h pi following radioligand co-injection with excess (5 nmol) NOTA-PEG2-RM26 to determine the in vivo GRPR-specificity. For statistical analysis Two-Way Anova with Tuckey’s post hock analysis was employed, using GraphPad Prism 7 for Windows® (GraphPad Software, Boston, Massachusetts USA).
# [3] = system: PC-3 xenografts; test: in vivo; parameters: species or system BALB/c nu/nu female mice; settings: mouse
# Description: as §1
# [4] = 1:2 model for M1 and M3, 1:1 model for M2, read-out: KD1
# [5] = 40 pmol, GI (gastrointestinal tract) uptake
# [6] = 40 pmol, Small intestines uptake
# [7] = 40 pmol, Tumor-to-kidneys ratio
# [8] = 40 pmol, Tumor-to-pancreas ratio
# [9] = female, BALB/c nu/nu, iv, 40 pmol, 4 h
# T1 sequence (P30550 whole entry): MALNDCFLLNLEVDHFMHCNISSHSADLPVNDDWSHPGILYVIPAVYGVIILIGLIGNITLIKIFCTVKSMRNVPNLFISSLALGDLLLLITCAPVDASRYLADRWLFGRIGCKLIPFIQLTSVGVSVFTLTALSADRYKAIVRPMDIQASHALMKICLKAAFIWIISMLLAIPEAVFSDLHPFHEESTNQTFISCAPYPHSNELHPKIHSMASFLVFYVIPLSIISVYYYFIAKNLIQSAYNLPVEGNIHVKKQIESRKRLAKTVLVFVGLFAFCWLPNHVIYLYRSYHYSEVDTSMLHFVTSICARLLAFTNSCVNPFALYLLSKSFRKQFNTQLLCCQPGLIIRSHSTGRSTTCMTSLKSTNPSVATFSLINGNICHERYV
compound,measurement,setting,value
"CCNC(=O)[C@H](CC(C)C)NC(=O)[C@H](Cc1c[nH]cn1)NC(=O)CN(C)C(=O)[C@@H](NC(=O)[C@H](C)NC(=O)[C@H](Cc1c[nH]c2ccccc12)NC(=O)[C@H](CCC(N)=O)NC(=O)[C@@H](Cc1ccccc1)NC(=O)COCC(=O)Nc1ccc(CNC(=O)CCC(C(=O)O)N2CCN(CC(=O)O)CCN(CC(=O)O)CCN(CC(=O)O)CC2)cc1)C(C)C (stereo partly drawn) [[^111In]In-AU-SAR-M1, [^111In]In-DOTAGA-AMA-DIG-DPhe-Gln-Trp-Ala-Val-Sar-His-Leu-NHEt, metal not drawn]",Kd,[1]; [4],390 pM
same,Kd,"[1]; 1:2 model, read-out: KD2",1100 pM
same,tissue uptake at 4 h,"[2]; 40 pmol, Blood uptake",0.08 ± 0.03 %ID/g
same,tissue uptake at 24 h,"[2]; 40 pmol, Blood uptake",0.01 ± 0.001 %ID/g
same,tissue uptake at 4 h,"[2]; 40 pmol, Bone uptake",0.3 ± 0.3 %ID/g
same,tissue uptake at 24 h,"[2]; 40 pmol, Bone uptake",0.04 ± 0.02 %ID/g
same,tissue uptake dose at 4 h,"[2]; 40 pmol, Carcass uptake",4 ± 2 %ID
same,tissue uptake dose at 24 h,"[2]; 40 pmol, Carcass uptake",0.48 ± 0.07 %ID
same,tissue uptake dose at 4 h,[2]; [5],2 ± 0.9 %ID
same,tissue uptake dose at 24 h,[2]; [5],0.62 ± 0.49 %ID
same,tissue uptake at 4 h,"[2]; 40 pmol, Kidneys uptake",3.1 ± 0.3 %ID/g
same,tissue uptake at 24 h,"[2]; 40 pmol, Kidneys uptake",2.38 ± 0.14 %ID/g
same,tissue uptake at 4 h,"[2]; 40 pmol, Liver uptake",0.2 ± 0.1 %ID/g
same,tissue uptake at 24 h,"[2]; 40 pmol, Liver uptake",0.09 ± 0.01 %ID/g
same,tissue uptake at 4 h,"[2]; 40 pmol, Lungs uptake",0.2 ± 0.2 %ID/g
same,tissue uptake at 24 h,"[2]; 40 pmol, Lungs uptake",0.04 ± 0.003 %ID/g
same,tissue uptake at 4 h,"[2]; 40 pmol, Muscle uptake",0.09 ± 0.06 %ID/g
same,tissue uptake at 24 h,"[2]; 40 pmol, Muscle uptake",0.02 ± 0.01 %ID/g
same,tissue uptake at 4 h,"[2]; 40 pmol, Pancreas uptake",2 ± 1 %ID/g
same,tissue uptake at 24 h,"[2]; 40 pmol, Pancreas uptake",0.12 ± 0.03 %ID/g
same,tissue uptake at 4 h,[2]; [6],0.8 ± 0.5 %ID/g
same,tissue uptake at 24 h,[2]; [6],0.07 ± 0.03 %ID/g
same,tissue uptake at 4 h,"[2]; 40 pmol, Spleen uptake",0.12 ± 0.05 %ID/g
same,tissue uptake at 24 h,"[2]; 40 pmol, Spleen uptake",0.1 ± 0.04 %ID/g
same,tissue uptake at 4 h,"[2]; 40 pmol, Tumor uptake",11 ± 1 %ID/g
same,tissue uptake at 24 h,"[2]; 40 pmol, Tumor uptake",6.3 ± 0.8 %ID/g
same,tissue to tissue ratio at 4 h,"[2]; 40 pmol, Tumor-to-blood ratio",160
same,tissue to tissue ratio at 24 h,"[2]; 40 pmol, Tumor-to-blood ratio",> 550
same,tissue to tissue ratio,"[2]; 40 pmol, Tumor-to-bone ratio",> 150
same,tissue to tissue ratio at 4 h,"[2]; 40 pmol, Tumor-to-bone ratio",74 ± 68
same,tissue to tissue ratio at 24 h,"[2]; 40 pmol, Tumor-to-bone ratio",173 ± 72
same,tissue to tissue ratio at 4 h,[2]; [7],3.6 ± 0.2
same,tissue to tissue ratio at 24 h,[2]; [7],2.7 ± 0.2
same,tissue to tissue ratio at 4 h,"[2]; 40 pmol, Tumor-to-liver ratio",65 ± 22
same,tissue to tissue ratio at 24 h,"[2]; 40 pmol, Tumor-to-liver ratio",67 ± 6
same,tissue to tissue ratio at 4 h,"[2]; 40 pmol, Tumor-to-lungs ratio",68 ± 39
same,tissue to tissue ratio at 24 h,"[2]; 40 pmol, Tumor-to-lungs ratio",174 ± 29
same,tissue to tissue ratio at 4 h,"[2]; 40 pmol, Tumor-to-muscle ratio",167 ± 102
same,tissue to tissue ratio at 24 h,"[2]; 40 pmol, Tumor-to-muscle ratio",375 ± 95
same,tissue to tissue ratio at 4 h,[2]; [8],9 ± 11
same,tissue to tissue ratio at 24 h,[2]; [8],57 ± 18
same,tissue to tissue ratio at 4 h,"[2]; 40 pmol, Tumor-to-spleen ratio",61 ± 19
same,tissue to tissue ratio at 24 h,"[2]; 40 pmol, Tumor-to-spleen ratio",70 ± 20
same,tissue uptake dose at 4 h,[2]; Carcass uptake,1.1 ± 0.6 %ID
same,tissue uptake dose at 4 h,[2]; GI (gastrointestinal tract) uptake,1.5 ± 0.3 %ID
same,Tumor-to-blood ratio,[3]; [9],141 ± 61^a
same,Tumor-to-pancreas ratio,[3]; [9],8 ± 7
same,Tumor-to-blood ratio,"[3]; female, BALB/c nu/nu, iv, 40 pmol, 24 h",557 ± 58^ a
same,Decrease of tumor uptake from 4 h to 24 h pi,[3],~40%
same,Increase of tumor-to-muscle ratio from 4 h to 24 h pi,[3],about 1.8 fold
same,Initial pancreas uptake remaining at 24 h pi,[3],5%
same,Tumor uptake at 24 h pi as % of the 4 h pi value,[3],57%
"CCNC(=O)[C@H](CC(C)C)NC(=O)[C@H](Cc1c[nH]cn1)NC(=O)CN(C)C(=O)[C@@H](NC(=O)[C@H](C)NC(=O)[C@H](Cc1c[nH]c2ccccc12)NC(=O)[C@H](CCC(N)=O)NC(=O)[C@@H](Cc1ccccc1)NC(=O)COCC(=O)Nc1ccc(CNC(=O)[C@H](CCCNC(=N)N)NC(=O)CCC(C(=O)O)N2CCN(CC(=O)O)CCN(CC(=O)O)CCN(CC(=O)O)CC2)cc1)C(C)C (stereo partly shown) [[^111In]In-AU-SAR-M2, [^111In]In-[DOTAGA-Arg]AU-SAR-M1, metal not drawn]",Kd,[1]; [4],31 pM
same,tissue uptake at 4 h,"[2]; 40 pmol, Blood uptake",0.08 ± 0.01 %ID/g
same,tissue uptake at 4 h,"[2]; 40 pmol, Bone uptake",0.23 ± 0.04 %ID/g
same,tissue uptake dose at 4 h,"[2]; 40 pmol, Carcass uptake",4 ± 2 %ID
same,tissue uptake dose at 4 h,[2]; [5],2.9 ± 0.3 %ID
same,tissue uptake at 4 h,"[2]; 40 pmol, Kidneys uptake",3.4 ± 0.4 %ID/g
same,tissue uptake at 4 h,"[2]; 40 pmol, Liver uptake",0.3 ± 0.1 %ID/g
same,tissue uptake at 4 h,"[2]; 40 pmol, Lungs uptake",0.2 ± 0.1 %ID/g
same,tissue uptake at 4 h,"[2]; 40 pmol, Muscle uptake",0.09 ± 0.04 %ID/g
same,tissue uptake at 4 h,"[2]; 40 pmol, Pancreas uptake",9 ± 2 %ID/g
same,tissue uptake at 4 h,[2]; [6],2.4 ± 0.9 %ID/g
same,tissue uptake at 4 h,"[2]; 40 pmol, Spleen uptake",0.3 ± 0.1 %ID/g
same,tissue uptake at 4 h,"[2]; 40 pmol, Tumor uptake",12.7 ± 0.8 %ID/g
same,tissue to tissue ratio at 4 h,"[2]; 40 pmol, Tumor-to-blood ratio",159 ± 32
same,tissue to tissue ratio at 4 h,"[2]; 40 pmol, Tumor-to-bone ratio",58 ± 12
same,tissue to tissue ratio at 4 h,[2]; [7],3.8 ± 0.6
same,tissue to tissue ratio at 4 h,"[2]; 40 pmol, Tumor-to-liver ratio",47 ± 14
same,tissue to tissue ratio at 4 h,"[2]; 40 pmol, Tumor-to-lungs ratio",63 ± 22
same,tissue to tissue ratio at 4 h,"[2]; 40 pmol, Tumor-to-muscle ratio",161 ± 74
same,tissue to tissue ratio at 4 h,[2]; [8],1.4 ± 0.3
same,tissue to tissue ratio at 4 h,"[2]; 40 pmol, Tumor-to-spleen ratio",46 ± 11
same,Tumor-to-small intestines ratio,[3],6 ± 2
"CCNC(=O)[C@H](CC(C)C)NC(=O)[C@H](Cc1c[nH]cn1)NC(=O)CN(C)C(=O)[C@@H](NC(=O)[C@H](C)NC(=O)[C@H](Cc1c[nH]c2ccccc12)NC(=O)[C@H](CCC(N)=O)NC(=O)[C@@H](Cc1ccccc1)NC(=O)COCC(=O)Nc1ccc(CNC(=O)[C@@H](CCCNC(=N)N)NC(=O)CCC(C(=O)O)N2CCN(CC(=O)O)CCN(CC(=O)O)CCN(CC(=O)O)CC2)cc1)C(C)C (stereo partly shown) [[^111In]In-AU-SAR-M3, [^111In]In-[DOTAGA-DArg]AU-SAR-M1, metal not drawn]",Kd,[1]; [4],300 pM
same,Kd,"[1]; read-out: KD2, 1:2 model",1100 pM
same,tissue uptake at 4 h,"[2]; 40 pmol, Blood uptake",0.05 ± 0.01 %ID/g
same,tissue uptake at 4 h,"[2]; 40 pmol, Bone uptake",0.17 ± 0.04 %ID/g
same,tissue uptake dose at 4 h,"[2]; 40 pmol, Carcass uptake",2.1 ± 0.2 %ID
same,tissue uptake dose at 4 h,[2]; [5],0.7 ± 0.2 %ID
same,tissue uptake at 4 h,"[2]; 40 pmol, Kidneys uptake",5 ± 0.5 %ID/g
same,tissue uptake at 4 h,"[2]; 40 pmol, Liver uptake",0.25 ± 0.02 %ID/g
same,tissue uptake at 4 h,"[2]; 40 pmol, Lungs uptake",0.15 ± 0.03 %ID/g
same,tissue uptake at 4 h,"[2]; 40 pmol, Muscle uptake",0.07 ± 0.03 %ID/g
same,tissue uptake at 4 h,"[2]; 40 pmol, Pancreas uptake",0.5 ± 0.1 %ID/g
same,tissue uptake at 4 h,[2]; [6],0.2 ± 0.2 %ID/g
same,tissue uptake at 4 h,"[2]; 40 pmol, Spleen uptake",0.18 ± 0.03 %ID/g
same,tissue uptake at 4 h,"[2]; 40 pmol, Tumor uptake",6.7 ± 0.3 %ID/g
same,tissue to tissue ratio at 4 h,"[2]; 40 pmol, Tumor-to-blood ratio",147 ± 43
same,tissue to tissue ratio at 4 h,"[2]; 40 pmol, Tumor-to-bone ratio",41 ± 9
same,tissue to tissue ratio at 4 h,[2]; [7],1.4 ± 0.1
same,tissue to tissue ratio at 4 h,"[2]; 40 pmol, Tumor-to-liver ratio",27 ± 3
same,tissue to tissue ratio at 4 h,"[2]; 40 pmol, Tumor-to-lungs ratio",47 ± 14
same,tissue to tissue ratio at 4 h,"[2]; 40 pmol, Tumor-to-muscle ratio",107 ± 63
same,tissue to tissue ratio at 4 h,[2]; [8],14 ± 3
same,tissue to tissue ratio at 4 h,"[2]; 40 pmol, Tumor-to-spleen ratio",39 ± 8
same,Tumor-to-small intestines ratio,[3],25 ± 7
